Here are results for one compound from ChEMBL document CHEMBL1142208, “Protection of mice from lethal Escherichia coli infection by chimeric human bactericidal/permeability-increasing protein and immunoglobulin G1 Fc gene delivery” (2007).

Experiment [1] relates to Mus musculus. Put plainly: Mortality rate of BALB/c mouse infected with Escherichia coli O111:B4 at 25 ug, im within 48 hrs. The format is functional.
Experiment [2] has as its system Mus musculus. The experiment is described as follows: Survival rate of BALB/c mouse infected with Escherichia coli O111:B4 at 25 ug, im within 48 hrs. The format is functional.

Turning to `CO/N=C(\C(=O)N[C@@H]1C(=O)N2C(C(=O)O)=C(COC(N)=O)CS[C@H]12)c1ccco1` [CEFUROXIME], the Survival in the experiment on Mus musculus [1] is on record as 91.4%; with Mus musculus [2], 5%.
